# Target: T1, MC5R (Homo sapiens, UniProt P33032)
# T1 construct: purchased Promega (in-house HiBiT-GPCR construct library, NanoBRET)
# Experiment: NanoBRET screen HiBiT-MC5R in HEK293
# Assay type: binding
# Procedure: Each tracer candidate was screened across the entire library of HiBiT-GPCR constructs using NanoBRET as the detection modality. As depicted in Figure 4A, the specificity of interactions was evaluated through decrease in BRET due to competitive displacement of a bound tracer by excess parental compound. Each tracer was analyzed for binding to each HiBiT-GPCR fusion in the absence and in the presence of competing parental compound. Briefly, HEK293 cells were transfected with HiBiT-GPCR constructs diluted into promoterless DNA to reduce expression and maximize translocation to the cell surface. Each tracer candidate was then screened at concentrations of 1 μM and 0.1 μM across cells expressing these fusions. Cells were treated for 1.5 h with tracer either alone or in the presence of 20 μM competing parental compound (i.e., control). BRET was measured upon addition of purified LgBiT and subsequent complementation with HiBiT genetically fused to a GPCR. The specificity of interactions was assessed through a decrease in BRET signal due to competitive displacement of the bound tracer. To further gauge the robustness of these interactions, the fold response over the control (i.e., BRETtracer/BRETcontrol) was calculated. We chose a 1.5-fold response, which translates to ≥7-fold signal over noise as the minimal threshold required to score an interaction as positive.
# HiBiT-GPCR DNA constructs were diluted in 10 mM Tris pH 8 to a final concentration of 0.01 μg/μL, arrayed in 96-well plates and stored at −20 °C. For transfection, HEK293 cells were suspended in Opti-MEM (without phenol red) supplemented with 2% fetal bovine serum (Seradigm) and 100 units/mL penicillin–streptomycin (Gibco) at a final concentration of 220,000 cells/mL and dispensed into white 96-well plates at 90 μL/well. Subsequent transfections and screens were carried using an Agilent Bravo Automated Liquid Handling Platform. First, the 96-well HiBiT DNA arrays were diluted 25-fold in Opti-MEM (without serum or phenol red) to a final concentration of 0.0004 μg/μL and 20 μL of the diluted DNAs were transferred into new 96-well plates. Next, promoterless carrier DNA (1 μg/μL) was diluted 25-fold (0.04 μg/μL) and then dispensed into the diluted arrays at 20 μL/well. Following brief mixing, Viafect transfection reagent (Promega) diluted 16-fold into Opti-MEM was dispensed into the plates at 40 μL/well. After mixing by pipetting, plates were incubated for 10 min on the pipetting station deck. The DNA-transfection reagent complexes were then added to plates containing cells. To facilitate the screen, 10 μL of DNA-transfection reagent complexes were added in duplicates to the top 4 and bottom 4 rows, resulting in two identical 48-well arrays per plate. Plates with transfected cells were incubated for 18–20 h at 37 °C/5% CO2. A screen of each tracer across the entire library using two different concentrations requires duplicate plates of transfected cells. Depending on the number of tracers being screened, transfections can be scaled up using the same ratios. The next day, for each tracer, four 20× screening solutions in tracer dilution buffer (Promega) were prepared: two duplicates at final concentration of 20 μM and two duplicates at a final concentration of 2 μM. […] The four resulting solutions were diluted 4-fold in Opti-MEM without serum or phenol red to generate 5× solutions (5 µM and 0.5 µM tracer +/− 100 μM competing compound). To screen the library, a BioTek MultiFlo FX liquid dispenser was used to dispense 22.5 µL of tracer solution to the top 4 rows and 22.5 µL tracer + competing compound solution to the 4 bottom rows. Plates were briefly mixed on an orbital shaker and incubated for 1.5 h at room temperature. […] Plates were briefly mixed on an orbital shaker and incubated for 15 min to allow complementation.
# T1 sequence (P33032 whole entry): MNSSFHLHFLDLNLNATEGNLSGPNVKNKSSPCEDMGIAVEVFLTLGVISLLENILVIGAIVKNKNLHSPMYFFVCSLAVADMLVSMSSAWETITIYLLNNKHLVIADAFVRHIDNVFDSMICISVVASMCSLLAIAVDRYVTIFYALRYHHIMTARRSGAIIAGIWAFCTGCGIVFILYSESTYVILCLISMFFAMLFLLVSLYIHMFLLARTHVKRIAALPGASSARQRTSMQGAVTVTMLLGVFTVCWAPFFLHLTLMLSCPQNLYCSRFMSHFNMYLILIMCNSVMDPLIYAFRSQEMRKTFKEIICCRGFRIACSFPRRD
SMILES,"NanoBRET Fold Response (MC5R, tracer 0.1μM)","NanoBRET Fold Response (MC5R, tracer 1μM)",also measured
O=C(CCOCCOCCOCCOCCNC(=O)CCc1ccc2n1[B-](F)(F)[N+]1=C(c3ccc[nH]3)C=CC1=C2)NCCCN1CCN(C2=Nc3ccccc3Oc3ccc(Cl)cc32)CC1 [Loxapine-a-2-NB590],1.04,–,–
CCCn1c(=O)c2[nH]c(-c3ccc(OCC(=O)NCCNC(=O)CCOCCNC(=O)c4ccc(CNC(=O)CCc5ccc6n5[B-](F)(F)[N+]5=C(c7ccc[nH]7)C=CC5=C6)cc4)cc3)nc2n(CCC)c1=O [XAC-3-NB590],1.02,0.98,–
COc1ccccc1N1CCN(CCCCN2C(=O)c3ccc(CNC(=O)CCOCCOCCOCCOCCNC(=O)CCc4ccc5n4[B-](F)(F)[N+]4=C(c6ccc[nH]6)C=CC4=C5)cc3C2=O)CC1 [NAN-190-2-NB590],0.98,1.01,–
O=C(CCc1ccc2n1[B-](F)(F)[N+]1=C(c3ccc[nH]3)C=CC1=C2)NCc1ccc(C(=O)NCCOCCOCCNCC(O)COc2cccc3ccccc23)cc1 (stereo not drawn) [Propranolol-3-NB590],–,–,"NanoBRET Fold Response (MC5R, 0.1μM): 1.00; NanoBRET Fold Response (MC5R, 1μM): 0.98"
COc1ccccc1N1CCN(CCCCN2C(=O)c3ccc(CNC(=O)CCOCCNC(=O)c4ccc(CNC(=O)CCc5ccc6n5[B-](F)(F)[N+]5=C(c7ccc[nH]7)C=CC5=C6)cc4)cc3C2=O)CC1 [NAN-190-3-NB590],0.97,0.96,–
O=C(CCc1ccc2n1[B-](F)(F)[N+]1=C(c3ccc[nH]3)C=CC1=C2)NCc1ccc(C(=O)NCCOCCC(=O)N[C@@H]2CC[C@@]3(O)[C@H]4Cc5ccc(O)c6c5[C@@]3(CCN4CC3CC3)[C@H]2O6)cc1 [Naltrexone-3-NB590],–,1.04,–
CCOC(=O)c1cc(C#N)c(N2CCC(C(=O)NS(=O)(=O)Cc3ccccc3/C=C/C(=O)NCCNC(=O)CCc3ccc4n3[B-](F)(F)[N+]3=C(c5ccc[nH]5)C=CC3=C4)CC2)nc1C [AZD1283-1-NB590],–,–,"NanoBRET Fold Response (MC5R, 1μM): 0.99"
COc1ccc2[nH]c(-c3ccc(CNC(=O)CCOCCOCCOCCOCCNC(=O)CCc4ccc5n4[B-](F)(F)[N+]4=C(c6ccc[nH]6)C=CC4=C5)cc3)c(CCNC(C)=O)c2n1 [AzomelatoninICO9-2-NB590],–,–,NanoBRET Fold Response (0.1μM tracer): 0.94; NanoBRET Fold Response (1μM tracer): 0.97
CC(C)N(CC[C@H](c1ccccc1)c1cc(CCNC(=O)CCOCCOCCOCCOCCNC(=O)CCc2ccc3n2[B-](F)(F)[N+]2=C(c4ccc[nH]4)C=CC2=C3)ccc1O)C(C)C [Tolterodine-2-NB590],–,0.91,–
CN1CCN(C2=Nc3cc(Cl)ccc3N(CC(=O)NCCOCCOCCOCCOCCNC(=O)CCc3ccc4n3[B-](F)(F)[N+]3=C(c5ccc[nH]5)C=CC3=C4)c3ccccc32)CC1 [Clozapine-c-2-NB590],–,–,"NanoBRET Fold Response (MC5R, 0.1μM tracer): 1.01; NanoBRET Fold Response (MC5R, 1μM tracer): 1.06"
N#CN=C(NCCCOc1cccc(CN2CCCCC2)c1)NCCNC(=O)CCOCCOCCOCCOCCNC(=O)CCc1ccc2n1[B-](F)(F)[N+]1=C(c3ccc[nH]3)C=CC1=C2 [Aminopotentidine-2-NB590],1.01,0.94,–
COc1ccc2c(n1)c(CCNC(C)=O)cn2CCNC(=O)CCc1ccc2n1[B-](F)(F)[N+]1=C(c3ccc[nH]3)C=CC1=C2 [Azamelatonin-1-NB590],–,–,NanoBRET Fold Response (0.1μM tracer): 1.01; NanoBRET Fold Response (1μM tracer): 1.04
CC(C)N(CC[C@H](c1ccccc1)c1cc(CCNC(=O)c2ccc(CNC(=O)CCc3ccc4n3[B-](F)(F)[N+]3=C(c5ccc[nH]5)C=CC3=C4)cc2)ccc1O)C(C)C [Tolterodine-BZ-NB590],1.02,1.02,–
O=C(CCc1ccc2n1[B-](F)(F)[N+]1=C(c3ccc[nH]3)C=CC1=C2)NCCOCCOCCNC(=O)OCCOCCN1CCN(C2=Nc3ccccc3Sc3ccccc32)CC1 [Quetiapine-a-2-NB590],0.97,1.09,–
Cc1cc2c(s1)Nc1ccccc1N=C2N1CCN(CCCNC(=O)CCOCCOCCOCCOCCNC(=O)CCc2ccc3n2[B-](F)(F)[N+]2=C(c4ccc[nH]4)C=CC2=C3)CC1 [Olanzapine-a-2-NB590],0.99,1.04,–
CN(C)CCC=C1c2ccccc2CCc2ccc(C(=O)NCCNC(=O)CCOCCOCCOCCOCCNC(=O)CCc3ccc4n3[B-](F)(F)[N+]3=C(c5ccc[nH]5)C=CC3=C4)cc21 [Amitriptyline-b-2-NB590],–,–,NanoBRET Fold Response (tracer at 0.1μM): 1.02; NanoBRET Fold Response (tracer at 1μM): 1.00
O=C(CCOCCOCCOCCOCCNC(=O)CCc1ccc2n1[B-](F)(F)[N+]1=C(c3ccc[nH]3)C=CC1=C2)NCCCN1CCN(C2=Nc3cc(Cl)ccc3Nc3ccccc32)CC1 [Clozapine-a-2-NB590],–,–,"NanoBRET Fold Response (MC5R, 0.1μM tracer): 1.04"
CN1CCN(C2=Nc3cc(Cl)ccc3Nc3ccc(CNC(=O)CCOCCOCCOCCOCCNC(=O)CCc4ccc5n4[B-](F)(F)[N+]4=C(c6ccc[nH]6)C=CC4=C5)cc32)CC1 [Clozapine-b-2-NB590],–,–,"NanoBRET Fold Response (MC5R, 0.1μM tracer): 1.05; NanoBRET Fold Response (MC5R, 1μM tracer): 1.04"
Cc1nc2n(c(=O)c1CCN1CCC(c3noc4cc(F)ccc34)CC1)CCCC2OC(=O)NCCOCCOCCOCCOCCNC(=O)CCc1ccc2n1[B-](F)(F)[N+]1=C(c3ccc[nH]3)C=CC1=C2 (stereo not drawn) [Risperidone-2-NB590],1.02,1.02,–

# Reference: publication PMC8151276, “An Integrated Approach toward NanoBRET Tracers for Analysis of GPCR Ligand Engagement” (Molecules, 2021)
